In patent US20250262167A1, “COMPOUNDS, TARGETS AND PATHWAYS FOR MACROPHAGE MODULATION” (Massachusetts Institute of Technology, priority 2020, published 2025):
Where two headings read alike, the source gives them in different places.

Key:
[1] = system: bone marrow derived macrophages (BMDMs); experiment: Seahorse ECAR (glycolysis) in BMDMs; type: cell-based, mouse; settings: Pkm−/− BMDMs, 50 nM
Method: FIGS. 21A-21I show DPI stimulates glycolysis through GPR3 and β-arrestin2. FIGS. 21A-21B show DPI-stimulated glycolysis is independent of the NOX activity. […] The mean fluorescence intensity (MFI) of 2-NBDG in cells was measured by flow cytometry and normalized to DMSO controls of wildtype BMDMs. Data are presented as the mean±sd (n=3). […] ImKCs were transfected with siRNA specific for Gpr3 or a scramble siRNA as control. […] Data are presented as the mean±sd (n=4). […] Data are presented as the mean±sd (n=12). […] Abbr2^−/− ImKC were constructed by CRISPR-Cas9-mediated gene editing. […] Data are presented as the mean±sd (n=4). […]
Specific parameters for glycolytic capacity and glycolytic reserve were calculated and summarized based on two independent experiments. […]
FIGS. 29A-29B show comparison of DPI's effect on glycolysis in wild-type and Pkm^−/− BMDMs. […] ImKCs were treated with DMSO or DPI alone (500 nM) or DPI plus ERK1/2 inhibitor (SCH772984, […]) for 6 hrs and the enzymatic activities of PKM2 (c) and GAPDH (d) were measured by colorimetric assay kits (Biovision). […]
OCR and ECAR were measured in isolated tissues or cultured ImKCs using the Seahorse XFe Extracellular Flux Analyzer (Agilent). […] Glucose levels were determined using a glucose (GO) assay kit (Sigma). […] Lactate levels were determined using a lactate assay kit (Eton Bioscience). […]

[2] = system: ImKCs (immortalized line of mouse Kupffer cells); experiment: Seahorse ECAR/OCR (glycolysis, OxPhos) in ImKCs; type: cell-based
Method: Shown are representative data of three independent experiments. […] Data are presented as the mean±sd (n=4).
(§1) FIGS. 21A-21I show DPI stimulates glycolysis through GPR3 and β-arrestin2. FIGS. 21A-21B show DPI-stimulated glycolysis is independent of the NOX activity. […] The mean fluorescence intensity (MFI) of 2-NBDG in cells was measured by flow cytometry and normalized to DMSO controls of wildtype BMDMs. Data are presented as the mean±sd (n=3). […] ImKCs were transfected with siRNA specific for Gpr3 or a scramble siRNA as control. […] Data are presented as the mean±sd (n=4). […] Data are presented as the mean±sd (n=12). […] Abbr2^−/− ImKC were constructed by CRISPR-Cas9-mediated gene editing. […] Data are presented as the mean±sd (n=4). […] ImKCs were transfected with Abbr2-GFP fusion gene and stimulated with DMSO, DPI (50 nM), or S1P (3 mM). The GFP signal was captured with a TIRF microscope at indicated time points. Shown are representative data of GFP signal at 0 min and 10 min, and merged signal from three independent experiments.
Specific parameters for glycolytic capacity and glycolytic reserve were calculated and summarized based on two independent experiments. […] The GFP signal was captured with a TIRF microscope at indicated time points. Shown are representative data of GFP signal at 0 min and 10 min, and the merged signal from three independent experiments.
OCR and ECAR were measured in isolated tissues or cultured ImKCs using the Seahorse XFe Extracellular Flux Analyzer (Agilent). For tissue respiration assays, 1.0 mg adipose tissue was dissected from inguinal WAT depots by using a surgical biopsy instrument (Integra Miltex Standard Biopsy Punches, Thermo Fisher) and placed into XF96 Islet Capture Microplates and pre-incubated with XF assay medium with pH value at 7.4. XF assay medium supplemented with 1 mM sodium pyruvate, 2 mM GlutaMax™-I, and 25 mM glucose. Isolated MDMs or Kupffer cells were subjected to a mitochondrial stress test by adding oligomycin (2 μM) followed by carbonyl cyanide 4-(trifluoromethoxy), phenylhydrazone (FCCP, 5 μM), and antimycin (1 μM). For glucose stress assay and ECAR measurement, XF assay medium was supplemented only with GlutaMax™-I. Tissue or cells were subjected to a glucose stress test by adding highly concentrated glucose (for tissue, 25 mM; for cells, 10 mM), followed by adding oligomycin (5 μM), FCCP (5 μM), and 2-DG (50 mM). Cells were seeded in culture dishes, and the medium was changed after 6 hours with serum-free DMEM. Cells were incubated for 12-16 hours, and the culture medium was then collected for measurement of glucose and lactate concentrations. Glucose levels were determined using a glucose (GO) assay kit (Sigma). Glucose consumption was the difference in glucose concentration when compared with DMEM. Lactate levels were determined using a lactate assay kit (Eton Bioscience).
DPI is an agonist of GPR3 and an inhibitor of […] oxidase (NOX). We first determined the requirement of NOX in DPI-stimulated glycolysis.
To determine the requirement of GPR3, we knocked down GPR3 by siRNA (siGpr3) in ImKCs.
β-arrestin2, encoded by Arrb2, has been reported to bind to GPR3 and is required for GPR3 signaling. To investigate the requirement of 0-arrestin2 in DPI-stimulated glycolysis, we constructed Arrb2^−/− ImKCs using CRISPR-Cas9 mediated gene editing (FIG. 28F).

β-arrestin2 = β-arrestin2 translocation assay (TIRF microscope); type: cell-based, mouse; settings: 10 min, ImKCs and BMDMs; DPI 50 nM, S1P 3 mM
Method: as §1
Specific parameters for glycolytic capacity and glycolytic reserve were calculated and summarized based on two independent experiments. […] The GFP signal was captured with a TIRF microscope at indicated time points. […]
BMDMs or ImKCs were cotransfected with plasmids encoding FLAG-GPR3-GFP or β-arrestin2-RFP. […] The fluorescent signals of membrane-bound receptor or β-arrestin2 were collected as live images using a total internal reflection fluorescence (TIRF) microscope (Olympus). […]

[3] = system: subcutaneous B16F10 tumors; experiment: B16F10 melanoma model in B6 mice; type: in vivo, mouse; settings: for tumor growth: alone; for tumor growth, with TA99: combination with TA99
[4] = 5, 50 and 500 nM, short-term, dose-dependent
[5] = flow cytometry, vs vehicle or TA99

Method for c-Myc: Transfected cells were not treated or treated with DPI (50 and 500 nM) for 6 hrs and luciferase activities were measured. Data are presented as the mean±sd (n=5). P values were calculated by student t-test. * P<0.05, ** P<0.01, *** P<0.001, **** P<0.0001.
The c-Myc activity was assessed using the Myc Reporter kit (BPS Biosciences) and the Dual-Luciferase Reporter System (Promega) according to the manufacturers' instructions. Briefly, 100 μL (1.5×10^5 cells/mL) control and Kupffer cells were seeded into 96-well plates. After overnight incubation, when cells reached ˜50% confluency, 1 μL of Reporter A (60 ng/μL) in the Myc Reporter kit was transfected into cells using Turbofectin 8.0. After 48 hours, cells were lysed in 25 μL Passive Lysis Buffer (provided in the Dual-Luciferase Reporter kit). 20 μL of cell lysate was transferred to 96-well plates and placed in a 96-well microplate luminometer (GloMax-Multi, Promega). 100 μL Luciferase Assay Reagent II and 100 μL Stop & Glo Reagent (both provided in the Dual-Luciferase Reporter kit) were sequentially injected, and firefly and Renilla luciferase activities were automatically measured. c-Myc activities were determined by the ratios of firefly to Renilla luciferase activities.

With c1ccc2c(c1)[I+]c1ccccc1-2 [Diphenyleneiodonium chloride] the c-Myc luciferase activity (c-Myc; Pkm−/− ImKCs) was “not”, the c-Myc luciferase activity (c-Myc; parental ImKCs, 50 and 500 nM, 6 hrs) was “induced” and the “glycolysis, glycolytic capacity and glucose consumption” value [1] was “did not stimulate any increase”. For the same compound, the ECAR [2, 4] was “immediate increase”, the OCR [2, 4] was “concomitant decrease” and the “glycolytic capacity and reserve” value ([2]; 50 and 500 nM, 24 hrs) was “significant increase”. For the same compound, the “glycolysis and glycolytic capacity” value ([2]; Arrb2−/− ImKCs, 50 nM) was “did not stimulate any increase”, the “glycolysis, glycolytic capacity and glucose consumption” value ([2]; siGpr3 ImKCs, 50 nM) was “did not stimulate any increase” and the “glycolysis and glycolytic capacity” value ([2]; siGpr3 ImKCs, 500 nM, lower than in scramble siRNA ImKCs) was “significant increase”. For the same compound, the “translocation of β-arrestin2 from cytosol to the plasma membrane” value (β-arrestin2) was “stimulated translocation”, the “HFD-induced elevation of serum AST and ALT” value (HFD 8 weeks) was “significantly reduced” and the weight gain (HFD 8 weeks, 2 mg/kg i.p. every five days, vs vehicle) was “significantly reduced”. The glucose tolerance (HFD 8 weeks, vs vehicle) was “significant increase”, the “lipid deposition in the liver” value (HFD 8 weeks, vs vehicle) was “significantly reduced” and the iWAT (after 8 weeks on HFD) was “significantly lower levels”.
With C=C(NC(=O)C(=C)NC(=O)c1csc(C2=N[C@@H]3c4csc(n4)[C@H]4NC(=O)c5csc(n5)[C@H]([C@](C)(O)[C@@H](C)O)NC(=O)[C@H]5CSC(=N5)/C(=C/C)NC(=O)[C@H]([C@@H](C)O)NC(=O)c5csc(n5)[C@]3(CC2)NC(=O)[C@H](C)NC(=O)C(=C)NC(=O)[C@H](C)NC(=O)[C@H]([C@@H](C)CC)N[C@@H]2C=Cc3c([C@H](C)O)cc(nc3[C@H]2O)C(=O)O[C@@H]4C)n1)C(N)=O [Thiostrepton] the tumor growth ([3]; I.P., 150 or 300 mg/kg, dosage-dependent) was “strongly suppressed”, the “tumor growth, with TA99” value ([3]; I.P., 150 or 300 mg/kg) was “additively” and the “expression of Tnf, Il1b, Cxcl1 and Cxcl2 in TAMs” value ([3]; RNA-seq, day 18, I.P. or S.C.) was “significantly upregulated”. For the same compound, the “macrophages and monocytes in tumors” value ([3]; day 18, flow cytometry, vs vehicle or TA99) was “elevated levels”, the “Arg1 in TAM” value [3, 5] was “decreased levels” and the “iNOS and CD86 in TAM” value [3, 5] was “elevated levels”. For the same compound, the tumor growth ([3]; para-tumor S.C., 20 mg/kg) was “suppressed the tumor growth”, the “tumor growth, with TA99” value ([3]; para-tumor S.C., 20 mg/kg) was “additive effects” and the “TNFα+ IFNγ+ NK cells in tumors” value ([3]; vs vehicle or TA99) was “increased number”.
